The text below walks through data of patent US9060988B2, “Method for treating pulmonary fibrosis using a pharmaceutical composition containing stanniocalcin 1 (STC1)” (Tohoku University, priority 2011, dated 2015).

Data set [1] has as its system bleomycin pulmonary fibrosis model. In words: Fibrillization suppressing effect in bleomycin pulmonary fibrosis model mouse (histopathologic staining of lung). To be noted: for 8OHDG staining of lung tissue (amount of peroxides, FIG. 7) / fibrillization (HE and EM stained images, FIGS. 1 to 5): bleomycin model; for 8OHDG staining of lung tissue (amount of peroxides, FIG. 7): extent similar to that of the normal lung group; for fibrillization (HE and EM stained images, FIGS. 1 to 5) / response on progression of pulmonary fibrosis: intratracheal administration; for fibrillization (HE and EM stained images, FIGS. 1 to 5): versus saline control group in which fibrillization was induced; for response on progression of pulmonary fibrosis: bleomycin pulmonary fibrosis model; for 8OHDG (extent of peroxides accumulation) / EM (fibrillization) / HE (fibrillization): lung tissue, one week after intratracheal administration together with bleomycin, STC1 500 ng, NAC 3 mg; for 8OHDG (extent of peroxides accumulation): 8OHDG staining; for EM (fibrillization): Elastica-Masson staining; for HE (fibrillization): HE staining. Also on record: key to 8OHDG (extent of peroxides accumulation) / HE (fibrillization) / EM (fibrillization): −: not observed; +: mild; ++: moderate; +++: severe. It counts as in vivo, C57BL6/J mice. From the text: The action of STC1 was investigated using a pulmonary fibrosis model utilizing the mitotic inhibitory action of an anticancer agent, bleomycin (Bleo), as the disease model mouse.
Human recombinant (r) STC1 was produced by BioVender, Inc. Specifically, human-derived STC1 gene added with a TAG structure was introduced into the 293 cells, and rSTC1 was separated using the TAG sequence.
Specifically, C57BL6/J mice (female, 10 weeks old), four animals in each group, were anesthetized by intraperitoneally administering an anesthetic agent (obtained by diluting 300 μg of ketamine hydrochloride and […] of xylazine in 100 μL of physiological saline). Thereafter, the cervix was cut open to expose a trachea, and the jacket of a 23G SURFLO needle was inserted into the trachea. Then, the following drugs were respectively administered intratracheally through the SURFLO jackets to the mice of each group.
(1) Saline control group: 50 μL of bleomycin-containing physiological saline (bleomycin concentration: 400 ng/mL)
(2) STC1-administered group: 500 ng of STC1+50 μL of bleomycin-containing physiological saline
(3) NAC-administered group (positive control): 3 mg of NAC+50 μL of bleomycin-containing physiological saline
(4) Normal lung group: 50 μL of physiological saline
After one week, the mice were euthanized by anesthetizing the mice as described above and then cutting the carotid artery, and subsequently, the lungs were removed. The extirpated lung tissues were subjected to histopathologic staining (HE (hematoxylin eosin) staining, EM (Elastica-Masson staining), and 8OHDG staining) by standard methods.

For data set [2] the following is noted: literature report; cited from earlier work.

With `CC(=O)N[C@@H](CS)C(=O)O` [NAC, N-acetylcysteine, reference compound], in data set [1], the “8OHDG staining of lung tissue (amount of peroxides, FIG. 7)” value is listed as “poorly stained”; the “fibrillization (HE and EM stained images, FIGS. 1 to 5)” value was “fibrillization was suppressed”; the “response on progression of pulmonary fibrosis” value is reported as “amelioration”; the “8OHDG (extent of peroxides accumulation)” value is “+”. Also, in data set [1], the “EM (fibrillization)” value is on record as “+~++” and the “HE (fibrillization)” value is on record as “+~++”.
As for Stanniocalcin 1 [STC1], in data set [1], the “8OHDG staining of lung tissue (amount of peroxides, FIG. 7)” value is given as “poorly stained”; the “fibrillization (HE and EM stained images, FIGS. 1 to 5)” value was “fibrillization was suppressed”; the “response on progression of pulmonary fibrosis” value is recorded as “complete response”; the “8OHDG (extent of peroxides accumulation)” value is “+”. In addition, in data set [1], the “EM (fibrillization)” value is on record as “+” and the “HE (fibrillization)” value is reported as “+”. Also, the “suppression of the immune system” value in data set [2] was “does not cause suppression of the immune system”.
